Source: the Deep4Chem optical property database

Experiment: solvent given as SMILES

c1cc2ccc1-c1ccc(cc1)-c1ccc(s1)-c1ccc(cc1)-c1ccc(cc1)-c1ccc(s1)-c1ccc(cc1)-c1ccc(cc1)-c1ccc-2s1
emission maximum (in C1CCOC1): 523 nm

CC(C)(C)c1ccc(-c2c(-c3ccc(-n4c5ccccc5c5ccccc54)cc3)cc(-c3ccc(-n4c5ccccc5c5ccccc54)cc3)c(-c3ccc(C(C)(C)C)cc3)c2-c2ccc(C(C)(C)C)cc2)cc1
emission maximum (in C1CCOC1): 367 nm

COC(=O)c1noc(-c2ccccc2)c1Cl
emission maximum (in C1CCCCC1): 344 nm

N#Cc1cc(-n2c3ccccc3c3cccnc32)c(-n2c3ccccc3c3cccnc32)cc1C#N
emission maximum (in CC#N): 504.42 nm
emission maximum (in CCCCCC): 386.98 nm
emission maximum (in Cc1ccccc1): 417.44 nm
emission maximum (in ClCCl): 468.37 nm
emission maximum (in c1cc(-n2c3ccccc3c3ccccc32)cc(-n2c3ccccc3c3ccccc32)c1): 441.06 nm

O=P1(c2ccccc2)C2=C(c3ccccc31)[Si](c1ccccc1)(c1ccccc1)c1cc(N(c3ccccc3)c3ccccc3)ccc12 (centres undefined)
emission maximum (in CC#N): 629 nm
emission maximum (in CO): 640 nm
emission maximum (in Cc1ccccc1): 558 nm

COc1ccc(-n2nc(C(=O)N3CCCC3)c(N3CCCC3)n2)cc1
emission maximum (in CC#N): 412 nm
emission maximum (in CCCCCC): 405 nm
emission maximum (in CCO): 410 nm
emission maximum (in CN(C)C=O): 396 nm
emission maximum (in ClC(Cl)Cl): 411 nm

CCOC(=O)CCCCCn1c2ccc([N+](=O)[O-])cc2c(=O)c2cc3c(cc21)c(=O)c1cc([N+](=O)[O-])ccc1n3CCCCCC(=O)OCC
emission maximum (in ClCCl): 553 nm

CN(c1ccccc1)c1ccc(-c2ccc(-c3ccc(N(C)c4ccccc4)cc3)c3nc(-c4ccccc4)c(-c4ccccc4)nc23)cc1
emission maximum (in C1CCOC1): 638 nm
emission maximum (in CC#N): 659 nm
emission maximum (in CCCCCC): 598 nm
emission maximum (in CN(C)C=O): 661 nm
emission maximum (in Cc1ccccc1): 627 nm
emission maximum (in ClC(Cl)Cl): 640 nm

c1ccc2c(c1)-c1ccccc1C21c2ccccc2-c2ncccc21
emission maximum (in CC1CCCO1): 333 nm

C[Si]1(C)c2cc(-c3cccs3)ccc2C=Cc2ccc(-c3cccs3)cc21
emission maximum (in ClCCl): 415 nm

CN(C)c1ccc(C(=O)Nc2ccc(Cl)cc2)cc1
emission maximum (in C1CCCCC1): 435 nm
emission maximum (in C1CCOC1): 490 nm
emission maximum (in CC#N): 498 nm
emission maximum (in CCOCC): 481 nm

COc1ccc(C2=C3C(/C=C/c4cc(OC)c(OC)c(OC)c4)=C(C=O)C(C)=[N+]3[B-](F)(F)n3c(/C=C/c4cc(OC)c(OC)c(OC)c4)c(C=O)c(C=Cc4cc(OC)c(OC)c(OC)c4)c32)cc1
emission maximum (in ClCCl): 686 nm

CCCCN1/C(=C/C=C/C2=[N+](C)c3ccccc3C2(C)C)C(C)(C)c2cc(OC)ccc21
emission maximum (in CS(C)=O): 585 nm

CC1=C(c2ccc(N(C)C)cc2)C(C)=[N+]2C1=C(c1c(-c3ccccn3)nc3ccccn13)c1c(C)c(-c3ccc(N(C)C)cc3)c(C)n1[B-]2(F)F
emission maximum (in ClCCl): 722 nm

COc1ccc(-n2c3ccccc3c3cc(C=C(C#N)C#N)ccc32)cc1
emission maximum (in C1CCOC1): 499 nm
emission maximum (in CC#N): 536 nm
emission maximum (in CC(C)=O): 525 nm
emission maximum (in CCOC(C)=O): 495 nm
emission maximum (in CO): 534 nm
emission maximum (in CS(C)=O): 547 nm
emission maximum (in Cc1ccccc1): 450 nm
emission maximum (in ClC(Cl)Cl): 511 nm

CCCCC(CC)COc1cc(OCC(CC)CCCC)c2c#cc3ccc4c(c3)c3cc(c#cc5cc(c#cc6ccc7c(c6)c6cc(c#cc1c2)ccc6n7CC(CC)CCCC)c(C(CCCC)OCCC)cc5C(CCCC)OCCC)ccc3n4CC(CC)CCCC (centres undefined)
emission maximum (in ClCCl): 388 nm

COc1ccc(C#Cc2nc3ccccc3nc2-c2csc(OC)c2)cc1
emission maximum (in ClCCl): 508 nm

N#Cc1ccc(-c2nc(-c3ccccc3)c(-c3ccccc3)[nH]2)cc1
emission maximum (in CO): 435 nm

COc1ccc(/C=C/C2=CC(/C=C/c3ccc(OC)cc3)=[N+]3C2=C(c2ccc(-c4ccc5ccccc5n4)s2)c2c(/C=C/c4ccc(OC)cc4)cc(/C=C/c4ccc(OC)cc4)n2[B-]3(F)F)cc1
emission maximum (in C1COCCO1): 732 nm

CCOC(=O)c1ccccc1-c1c2ccc(=[N+](CC)CC)cc-2oc2cc(N(CC)CC)ccc12
emission maximum (in CC#N): 581 nm
emission maximum (in CCO): 571 nm
emission maximum (in CN(C)C=O): 585 nm
emission maximum (in O): 581 nm

c1ccc(B2Nc3cc4c(cc3-c3occc32)NB(c2ccccc2)c2ccoc2-4)cc1
emission maximum (in ClCCl): 393 nm
